These results are taken from US5332733A, “Heterocyclically substituted piperazinoakylbenzoxazine and piperazinoalkylbenzothiazine compounds, processes for preparing them, and medicaments containing them” (Kali-Chemie Pharma GmbH, priority 1990, dated 1994).

Data set [1] deals with histamine-induced anaphylactoid cutaneous reaction. The data set can be described thus: Inhibition of histamine-induced anaphylactoid cutaneous reaction in rats. The data set is classed as in vivo, Sprague-Dawley rats. The note with it: Rattus norvegicus, 1 h, 2 × 10^-5 mole/kg per os, one hour before ovalbumin challenge. How it is done:
(§1) 1. Determining Inhibition of Passive Cutaneous Anaphylaxis (PCA) and Histamine-Induced Anaphylactoid Cutaneous Reaction
(§2) The inhibition of the passive cutaneous anaphylaxis and of the anaphylactoid cutaneous reaction induced by histamine was determined as follows:
(§3) Sprague-Dawley rats having a body weight of 150-180 g were injected intradermally in one flank with 50 μl of a 1:75 dilution of the IgE-rich ovalbumin antiserum in physiological saline solution to passively sensitize them to ovalbumin.
(§4) 24 hours after sensitization a solution of 8.25 mg/kg of ovalbumin and 26.4 mg/kg of a blue dye (Evans's Blue) was administered to the rats intravenously according to Martin et al. to trigger passive cutaneous anaphylaxis.
To determine the histamine-induced anaphylactoid skin reaction, the animals are injected intradermally in the flank opposite to the antiserum administration with 50 μl of a physiological saline solution containing 0.8 mg/ml histamine directly before the intravenous injection of the solution containing the ovalbumin and the blue dye.
(§5) On the day of the experiment the test substances were dissolved in distilled water which contained 1 vol. % dimethylformamide and 1 vol. % of Tween™ 20 (=polyoxyethylene (20) sorbitan monolaurate). One hour before administration of the ovalbumin challenge, each animal was orally administered 2×10^-5 mole/kg of test substance in 0.5 ml of solution. For comparison purposes a control group received only the solvent.
(§6) The edematous anaphylactic (PCA) and anaphylactoid (histamine-induced) reactions caused by the stimulation of the intravenous ovalbumin injection, which manifested themselves by edema formation, swelling and exudation of blue dye, were evaluated 30 minutes after their initiation by the intravenous ovalbumin injection. This was done by visually determining the extent to which the blue dye emerged at the sites of edema formation. The percentage inhibition of anaphylactic and anaphylactoid reactions induced by the test substances in comparison with the reactions of the control animals not treated with any test substance was determined using comparison scales.
(§7) The results obtained using compounds of formula I according to the foregoing test methods are shown in the following Table A. The example numbers given for the compounds of formula I relate to the subsequent preparative examples.

Data set [2] addresses T1, histamine-(H1)-receptor (Cavia porcellus, UniProt P31389).
T1 construct: Segments of the ileum 1.5 cm long from Dunkin Hartley guinea pigs; from tissue; host or cells: isolated ileum of Dunkin Hartley guinea pigs
The data set can be described thus: Histamine-(H1)-receptor antagonism in vitro, histamine-induced contractions of isolated ileum. Type of data set: cell-based, guinea pig (Dunkin Hartley). The note with it: test substance 10^-6 mole/l, histamine 5 × 10^-6 mole/l. How it is done:
3. Investigation of Anti-Histamine-(H1) Effect Based on Histamine-(H1)-Receptor Antagonism In Vitro
To investigate the histamine-(H1)-receptor antagonism of the test substances, the inhibiting effect of the substances on histamine-induced contractions of the smooth muscle was determined in vitro on the isolated organ. Isolated strips of organ from the ileum are suitable for this purpose. In an organ bath of physiological saline solution the smooth muscle strips react to the addition of histamine by contracting. […] The extent of regression of the contraction is an indication of the anti-histamine-(H1) activity of the compounds. The investigation was carried out analogously to the method originally described by Magnus (Pfluegers Arch. 102, 123 (1904)).
Procedure for determining the smooth muscle contraction inhibiting effect on isolated guinea pig ileum induced by a 5×10^-6 molar histamine concentration
Segments of the ileum 1.5 cm long from Dunkin Hartley guinea pigs having a body weight of 300 500 g were used for the test. Each strip was placed in an organ bath of 10 ml of physiological saline solution according to Krebs-Henseleit and attached to a conventional apparatus for isotonic measurement of changes in length of the ileum strips (automated Celaster measuring apparatus), so that the tissue was under 1 g of tension. The bath was kept at a pH of 7.4 and gassed with a mixture of 5% CO2 and 95% O2. After an equilibration phase, an isotonic contraction of the tissue was induced by adding histamine in a final concentration of 5×10^-6 mole/liter and washing it out again after a contact time of 30 seconds. Only tissues samples from which three reproducible contractions were obtained at 10 minute intervals were used in the subsequent test. The test substances were then added in a final concentration of 10^-6 mole/liter, and after 30 seconds contact time histamine was again added up to a concentration of 5×10^-6 mole/liter. The resulting contractions were measured over 30 seconds. The tissue was then washed several times over a period of 10 minutes. Histamine was then added again to stimulate a contraction. The resulting contractions were again measured over 30 seconds. The difference between the amplitude of the contraction obtained by histamine addition alone and the amplitude of the contraction obtained in the presence of the test substance was determined and expressed in terms of % inhibition.
The inhibiting effects on the contractions induced by histamine 30 seconds after administration of the test substance and on the contractions induced by the addition of histamine 10 minutes later are listed in the table.

Data set [3] concerns passive cutaneous anaphylaxis (PCA). The experiment in a line: Inhibition of passive cutaneous anaphylaxis (PCA) in rats. The data set is classed as in vivo, Sprague-Dawley rats. The note with it: Rattus norvegicus, 1 h, 2 × 10^-5 mole/kg per os, one hour before ovalbumin challenge. The protocol:
as §1
The PCA reaction is carried out following the methods described by Goose et al. (J. N. Immunology 16 (1969), 749) and by Martin et al. (Arch. Pharmacol. 316 (1981), 186).
The IgE-rich ovalbumin antiserum used in the test was obtained from immunized Brown-Norway rats. The were immunized with an intraperitoneal injection of a mixture of 100 μg of ovalbumin with a Bordetella pertussis suspension (Vaxicoq™, Manufactured by Institute Merieux, containing 5×10^9 organisms and 1.25 mg Al(OH)3). After 20 days the animals were re-immunized with a further intraperitoneal injection of a solution of 10 μg ovalbumin in 0.5 ml physiological saline solution. After a further four days the blood was removed from the animals and centrifuged. The resulting antiserum was stored at -20° C. until use.
as §2, §3, §4, §5, §6, §7

Data set [4] has as its system PAF-induced aggregation of rabbit blood platelets. The experiment in a line: Anti-PAF activity in vitro, PAF-induced platelet aggregation. Type of data set: cell-based, rabbit (New Zealand hybrids). The note with it: Oryctolagus cuniculus, test substance 10^-5 mole/l, pH 7.4. The source says: 4. Determination of Anti-PAF Activity In Vitro
PAF (=Platelet Activating Factor) is a phospholipid mediator which has many effects. Activation of platelet aggregation induces protracted broncho-contraction and hyper-reactivity of the air paths.
In this test the effect of the test substances on platelet aggregation induced by adding PAF to a suspension of platelets obtained from rabbit blood is investigated using the method described by Mikashima et al. (Jap. J. Pharmacol. 44 (1987) 387-391).
A suspension of platelets obtained from rabbit blood containing 4×10^9 platelets/ml in a modified Tyrode buffer solution (=Tyrode solution with 1.3 mM/l CaCl2 and 2.5 g/l gelatine added) adjusted to pH 7.4 was used. Tyrode solution is an aqueous solution containing 136.9 mmoles NaCl, 2.68 mmoles KCl, 2.31 mmoles CaCl2, 1.0 mmole MgCl2, 11.9 mmoles NaHCO3, 1.45 mmoles NaH2 PO4 and 5.55 mmoles glucose per liter. The platelets were obtained from 10 ml blood samples from each of three rabbits (New Zealand hybrids, body weight 3-4 kg). For this the blood samples were treated with ethylenediamine tetraacetic acid and washed according to the method of Artley et al. (Brit. J. Hematol. 19 (1970), 7-17). A platelet-rich plasma was then initially separated by centrifuging (20 minutes at 400×g). The blood platelets were separated from the plasma by recentrifuging for 15 minutes at 1,400×g. The platelets remaining as sediment after centrifuging were resuspended in a Tyrode buffer solution (but without calcium). 0.4 mmole of lysine acetylsalicylate was then added, and after 15 minutes the platelets were sedimented again. The sediment was resuspended in the aforementioned modified Tyrode buffer solution, and the number of platelets in the resulting suspension was adjusted to the desired content.
A 40×10^-9 molar PAF solution was used as a reagent. This solution was made from a 1.8×10^-3 molar stock solution in chloroform. For this purpose a 10 μl sample of the stock solution was evaporated to dryness and redissolved in 180 μl of the modified Tyrode solution to which 0.25% of lipid-free bovine serum albumin had been added. From this 10^-5 molar working solutions were then prepared and stored frozen. Samples of these solutions were appropriately diluted for the tests.
To carry out the test 50 μl of the platelet suspension and 10 μl of a 40×10^-5 molar solution of the compound being investigated were added with stirring (1,000 rpm) to 330 μl of the modified Tyrode buffer solution in an aggregation tube provided with a small magnetic stirrer. This corresponds to a final test substance concentration of 10^-5 mole/l. After 90 seconds preincubation time, 10 μl of the PAF preparation were added. The aggregation occurring in the aggregation tubes was measured over 4-5 minutes with the aid of a computerized aggregometer.
The aggregation which occurred in test tubes containing only platelet suspension was evaluated as 0%, whereas the aggregation which occurred in test tubes containing platelet suspension and PAF preparation was evaluated as 100%. The aggregation which still occurred during the inhibition of the PAF induced platelet aggregation due to the addition of the test substances was measured, and the resulting aggregation inhibition was calculated therefrom in %.

The subject of data set [5] is mice. As to conditions: mouse, in vivo, 1440 min. The protocol:
2. Determination of Minimum Toxic Dose
Maximum doses of 300 mg/kg of the test substance were administered orally to male mice weighing 20-25 g. The animals were observed carefully for 3 hours for toxicity symptoms. In addition, all symptoms and deaths were recorded over a period of 24 hours after administration. Associated symptoms were also observed and recorded. If death or severe toxic symptoms were observed, additional mice were administered increasingly lower doses. The lowest dose which produced death or severe toxic symptoms is given in the following Table B as the minimum toxic dose.

[6] abbreviates: 0.5 min, after 30 seconds, read-out: % inhibition of histamine-induced ileum contractions after 30 seconds.
Setting [7] is: 10 min, after 10 minutes (after washing), read-out: % inhibition of histamine-induced ileum contractions after 10 minutes.

Structures are written as SMILES. Read-outs that look alike come from different tables or passages of the source.

T1 sequence (P31389 whole entry): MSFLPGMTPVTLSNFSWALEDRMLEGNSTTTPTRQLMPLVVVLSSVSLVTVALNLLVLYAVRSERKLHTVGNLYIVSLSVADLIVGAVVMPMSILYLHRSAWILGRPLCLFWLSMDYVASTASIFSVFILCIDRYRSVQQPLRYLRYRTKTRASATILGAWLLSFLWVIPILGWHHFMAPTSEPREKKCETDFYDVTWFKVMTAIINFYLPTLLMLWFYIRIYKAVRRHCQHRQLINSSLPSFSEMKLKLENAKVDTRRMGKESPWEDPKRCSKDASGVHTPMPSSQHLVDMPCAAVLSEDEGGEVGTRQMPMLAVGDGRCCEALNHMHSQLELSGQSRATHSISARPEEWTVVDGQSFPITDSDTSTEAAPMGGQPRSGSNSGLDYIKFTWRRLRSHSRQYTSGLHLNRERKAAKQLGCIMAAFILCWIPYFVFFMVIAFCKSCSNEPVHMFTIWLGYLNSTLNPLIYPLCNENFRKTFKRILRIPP

On to `Cc1ccnc(N2CCN(CCCCC3Sc4ccccc4N(C)C3=O)CC2)c1` (centres unmarked) [Example 3, 4-methyl-2-{4-[4-(4-methylpyridin-2-yl)-piperazin-1-yl]butyl}-2H-1,4-benzothiazine-3(4H)-one], for which the inhibition in vivo at 20 µmol/kg in data set [1] is 55%; in data set [3], 80%. In addition, the inhibition at 1 µM in data set [2] (setting [6]) is 66%; in data set [2] (setting [7]), 28%.
On to `Cc1ccnc(N2CCN(CCCC3Sc4cc(C)ccc4NC3=O)CC2)c1` (centres unmarked) [Example 10], for which, in data set [4], the inhibition at 10 µM was found to be 74%. For the same compound, the inhibition in vivo at 20 µmol/kg in data set [1] was 35%; in data set [3], 70%. Moreover, the figures for the inhibition at 1 µM in data set [2] (setting [6]) and in data set [2] (setting [7]) were 42% and 36%, respectively.
For `O=C1Nc2ccccc2SC1CCCCN1CCN(c2ncccn2)CC1` (centres unmarked) [Example 12], the figures for the inhibition in vivo at 20 µmol/kg in data set [1] and in data set [3] were 50% and 80%, respectively. Also, in data set [5], the Minimum toxic dose is reported as 300 mg/kg.
Consider `Cc1ccc(N2CCN(CCCCC3Sc4ccccc4NC3=O)CC2)nc1` (centres unmarked) [Example 13], for which the results for the inhibition in vivo at 20 µmol/kg in data set [1] and in data set [3] were 30% and 55%, respectively. Also, the inhibition at 1 µM in data set [2] (setting [6]) is 42%; in data set [2] (setting [7]), 15%. This compound gave a Minimum toxic dose in data set [5] of 100 mg/kg.
Regarding `O=C1Nc2ccccc2SC1CCCCN1CCN(c2ccccn2)CC1` (centres unmarked) [Example 17], the inhibition in vivo at 20 µmol/kg worked out at 35% in data set [1] and 70% in data set [3].
Compound `Cc1ccnc(N2CCN(CCCCC3Sc4cc(F)ccc4NC3=O)CC2)c1` (centres unmarked) [Example 18] registered an inhibition at 10 µM in data set [4] of 76%. Also, the inhibition in vivo at 20 µmol/kg in data set [1] turned out to be 53%; in data set [3], 80%. The inhibition at 1 µM was 78% in data set [2] (setting [6]) and 83% in data set [2] (setting [7]).
As to `COc1ccc2c(c1)SC(CCCCN1CCN(c3cc(C)ccn3)CC1)C(=O)N2` (centres unmarked) [Example 19, 7-methoxy-2-{4-[4-(4-methylpyridin-2-yl)-piperazin-1-yl]-butyl}-2H-1,4-benzothiazine-3(4H)-one], the inhibition in vivo at 20 µmol/kg in data set [1] amounted to 60%; in data set [3] it was 80%. The results for the inhibition at 1 µM in data set [2] (setting [6]) and in data set [2] (setting [7]) were 60% and 42%, respectively.
In the case of `Cc1ccnc(N2CCN(CCCCC3Sc4cc(C)c(C)cc4NC3=O)CC2)c1` (centres unmarked) [Example 21], the inhibition at 10 µM in data set [4] is 37%. Also, the inhibition in vivo at 20 µmol/kg in data set [1] amounted to 55%; in data set [3], 78%. Besides, the inhibition at 1 µM in data set [2] (setting [6]) is 50%; in data set [2] (setting [7]), 89%.
For `Cc1ccnc(N2CCN(CCCCC3Oc4ccc(Cl)cc4NC3=O)CC2)c1` (centres unmarked) [Example 23], the values for the inhibition at 1 µM in data set [2] (setting [6]) and in data set [2] (setting [7]) were 70% and 83%, respectively.
As for `Cc1ccnc(N2CCN(CCCCC3Oc4ccc(C)cc4NC3=O)CC2)c1` (centres unmarked) [Example 24], the results for the inhibition in vivo at 20 µmol/kg in data set [1] and in data set [3] were 60% and 80%, respectively. Also, the values for the inhibition at 1 µM in data set [2] (setting [6]) and in data set [2] (setting [7]) were 70% and 86%, respectively.
Taken in the same sequence, the figures for `Cc1ccnc(N2CCN(CCCCC3Sc4cc(O)ccc4NC3=O)CC2)c1` (centres unmarked) [Example 25] were 15%, 50%, 50% and 32%.
In data set [4], `Cc1ccnc(N2CCN(CCCCC3Sc4cc(Cl)ccc4NC3=O)CC2)c1` (centres unmarked) [Example 27] yielded an inhibition at 10 µM of 35%. Besides, the inhibition in vivo at 20 µmol/kg was determined as 35% in data set [1] and 60% in data set [3]. The inhibition at 1 µM in data set [2] (setting [6]) turned out to be 16%; in data set [2] (setting [7]), 72%.
Turning to `CCCCN1C(=O)C(CCCCN2CCN(c3cc(C)ccn3)CC2)Sc2ccccc21` (centres unmarked) [Example 28], 10 µM produced 45% inhibition in data set [4]. Moreover, the inhibition in vivo at 20 µmol/kg in data set [1] is 40%; in data set [3], 65%. In addition, the inhibition at 1 µM is 38% in data set [2] (setting [6]) and 45% in data set [2] (setting [7]).

For orientation: inhibition in vivo means the drop in the measured response relative to a control, in per cent. In general, inhibition refers to the share of the control response that was lost under treatment.
